According to patent US10532065B2, “Bisphosphonic acid derivative and application for same” (NAGASAKI UNIVERSITY, priority 2014, dated 2020):
Like-named read-outs stand apart in the source and are kept apart here.

Assays:
Format in all cases: cell-based
[1] = system: U937 cells; experiment: U937 cell growth inhibition (direct antitumor action, CellTiterGlo); conditions: for IC50: U937 cell growth inhibition, 4 days culture
Experimental: (§1) The direct antitumor action of bisphosphonic acid POM ester and bisphosphonic acid was studied by comparison using U937.
(§2) The direct antitumor action of various bisphosphonic acid POM esters was studied by comparison using U937 and EJ-1. The measurement was performed according to Experimental Example 2 and Experimental Example 4.

[2] = system: EJ-1 cells; experiment: EJ-1 cell growth inhibition (direct antitumor action, CellTiterGlo); conditions: for IC50: EJ-1 (bladder cancer) growth inhibition, 4 days culture
Experimental: as §1
(§3) The direct antitumor action of bisphosphonic acid POM ester derivatives and bisphosphonic acids was studied by comparison using EJ-1. It was performed in the same manner as in Experimental Example 1 except that EJ-1 was used as the cell to be used. For recovery of the cells, a conventional EDTA trypsin treatment was performed.
as §3, with “POM esters” for “POM ester derivatives”, “Example 2” for “Example 1”
as §2

[3] = system: EJ-1 cells / γδ T cells; experiment: TNF-α production from γδ T cells stimulated by compound-pretreated EJ-1 cells (indirect antitumor action, ELISA); conditions: EJ-1 pretreated 4 hr with compound, 16 hr with γδ T cells, TNF-α ELISA, read-out: TNF-α50
Experimental: The indirect antitumor action of bisphosphonic acid POM esters and bisphosphonic acids was studied by comparison using EJ-1. In principle, EJ-1 is treated with a compound, washed, and reacted with γδ T cells, and the cytotoxic ability is studied by comparison, by quantifying TNF-α produced by γδ T cells during cell disordering. TNF-α is generally used as an index of γδ T cell induction ability and/or proliferative capacity, and γδ T cells are considered to be induced and/or proliferated in proportion to the TNF-α amount (Journal of Immunology, 154, 5986-5994 (1995)). Since the produced TNF-α is what is called a tumor necrosis factor, it is considered to have an action to lower proliferation of cancer cells or induce cell death.
Thereto was added a solution (500 μl) of compounds 3, 5, 6, 7, which are bisphosphonic acid POM ester derivatives, obtained by serially diluting 10 mM stock solution 10-fold from 20 μM, or a solution (500 μl) of bisphosphonic acid 10, 12, 13, 14 compound obtained by serially diluting 10-fold from 200 μM, and the cells were suspended well. These conical tubes were stood at 37° C. for 4 hr, and the cells were washed 3 times with 5 ml of culture medium. To these cells was added 500 μl of medium, and the cells were suspended well. […] The cell culture medium was suspended well, and the plate was centrifuged at 1,700 rpm, 4° C. for 2 min and the culture supernatant (150 μl) was taken and placed in another round-bottomed 96 well plate. The plate was frozen at −80° C. overnight, left standing at room temperature for 1 hr, stirred well and 100 μl thereof was subjected to ELISA of TNF-α. The content of TNF-α was calculated from the analytical curve of TNF-α. These were performed in triplicate, and a graph showing bisphosphonic acid POM ester derivative and the corresponding bisphosphonic acid as one pair was plotted. […] The results of bisphosphonic acid POM ester derivative are shown by -●-, and the results of bisphosphonic acid are shown by -◯-.
The indirect antitumor action of bisphosphonic acid POM esters and bisphosphonic acids was quantitatively studied by comparison using EJ-1. […] Thereto was added a solution (500 μl) of a bisphosphonic acid POM ester derivative obtained by serially diluting 10 mM stock solution 10-fold from 20 μM, or a bisphosphonic acid solution (500 μl) serially diluted 10-fold from 200 μM was added, and the cells were suspended well. These conical tubes were stood at 37° C. for 4 hr, and the cells were washed 3 times with 5 ml of culture medium. To these cells was added 500 μl of medium, and the cells were suspended well. […] The cell culture medium was suspended well, and the plate was centrifuged at 1,700 rpm, 4° C. for 2 min and the culture supernatant (150 μl) was taken and placed in another round-bottomed 96 well plate. The plate was frozen at −80° C. overnight, left standing at room temperature for 1 hr, stirred well and 100 μl thereof was subjected to ELISA of TNF-α. The content of TNF-α was calculated from the analytical curve of TNF-α. These were performed in triplicate, and a half of the concentration of compounds 1-7, which are bisphosphonic acid POM ester derivatives, and compounds 8-14, which are bisphosphonic acids, necessary for producing the maximum amount of TNF-α from γδ T cells was calculated as TNF-α50, and summarized in Table 6.
Therefore, the TNF-α50 value of various bisphosphonic acid POM ester derivatives was calculated. […] Thereto was added a solution (500 μl) of compounds 1-7 and 15-39, which are bisphosphonic acid POM ester derivatives, and compound 42, which is other bisphosphonic acid ester derivative, obtained by serially diluting 10 mM stock solution 10-fold from 20 μM, and the cells were suspended well. These conical tubes were stood at 37° C. for 4 hr, and the cells were washed 3 times with 5 ml of culture medium. To these cells was added 500 μl of medium, and the cells were suspended well. […]

Row | Compound | IC50 ([1]; Homo sapiens, U-937, 96 h) [µM] | IC50 ([2]; EJ1, 96 h) [µM] | EC50 ([3]; EJ1) [µM] | IC50 [1] [µM] | IC50 [2] [µM] | EC50 [3] [µM] | direct antitumor activity (in words) ([1]; U937 growth inhibition) | direct antitumor activity (in words) ([2]; EJ-1 growth inhibition)
1 | Cc1cccnc1NCC(P(=O)(O)O)P(=O)(O)O [Compound 8, 2-(3-methylpyridin-2-ylamino)ethylidene-1,1-bisphosphonic Acid, reference compound] | 980 | 13 | > 100 | – | – | – | – | –
2 | CC(C)(C)C(=O)OCOP(=O)(OCOC(=O)C(C)(C)C)C(CNc1ncccc1-c1ccc(F)cc1)P(=O)(OCOC(=O)C(C)(C)C)OCOC(=O)C(C)(C)C [Compound 26, tetrakispivaloyloxymethyl 2-[3-(4-fluorophenyl)pyridin-2-ylamino]ethylidene-1,1-bisphosphonate] | – | – | – | 7 | 8.7 | > 10 | – | –
3 | Cc1ccc(NCC(P(=O)(O)O)P(=O)(O)O)nc1 [Compound 10, 2-(methylpyridin-2-ylamino)ethylidene-1,1-bisphosphonic Acid, reference compound] | 29 | 7.9 | 48 | – | – | – | – | –
4 | Cc1cccc(NCC(P(=O)(OCOC(=O)C(C)(C)C)OCOC(=O)C(C)(C)C)P(=O)(OCOC(=O)C(C)(C)C)OCOC(=O)C(C)(C)C)n1 [Compound 20, tetrakispivaloyloxymethyl 2-(6-methylpyridin-2-ylamino)ethylidene-1,1-bisphosphonate] | – | – | – | 6.9 | 16 | 3.7 | – | –
5 | CC(C)(C)C(=O)OCOP(=O)(OCOC(=O)C(C)(C)C)C(CNc1ccc(Cl)cn1)P(=O)(OCOC(=O)C(C)(C)C)OCOC(=O)C(C)(C)C [Compound 18, tetrakispivaloyloxymethyl 2-(5-chloropyridin-2-ylamino)ethylidene-1,1-bisphosphonate] | – | – | – | 3.3 | 4.8 | 0.38 | – | –
6 | CC(C)(C)C(=O)OCOP(=O)(OCOC(=O)C(C)(C)C)C(CNc1cc(Br)ccn1)P(=O)(OCOC(=O)C(C)(C)C)OCOC(=O)C(C)(C)C [Compound 28, tetrakispivaloyloxymethyl 2-(4-bromopyridin-2-ylamino)ethylidene-1,1-bisphosphonate] | – | – | – | 7.1 | 6 | 6.5 | – | –
7 | CC(C)(C)C(=O)OCOP(=O)(OCOC(=O)C(C)(C)C)C(CNc1ccc(C(F)(F)F)cn1)P(=O)(OCOC(=O)C(C)(C)C)OCOC(=O)C(C)(C)C [Compound 17, tetrakispivaloyloxymethyl 2-(5-trifluoromethylpyridin-2-ylamino)ethylidene-1,1-bisphosphonate] | – | – | – | 2.6 | 4.3 | > 10 | – | –
8 | O=P(O)(O)C(CNc1ncccn1)P(=O)(O)O [Compound 13, 2-(pyrimidin-2-ylamino)ethylidene-1,1-bisphosphonic Acid, reference compound] | 150 | 23 | 48 | – | – | – | – | –
9 | CC(C)(C)C(=O)OCOP(=O)(OCOC(=O)C(C)(C)C)C(CNc1cc[nH]n1)P(=O)(OCOC(=O)C(C)(C)C)OCOC(=O)C(C)(C)C [Compound 32, tetrakispivaloyloxymethyl 2-(pyrazol-3-ylamino) ethylidene-1,1-bisphosphonate] | – | – | – | 6.3 | 12 | 4.4 | – | –
10 | O=P(O)(O)C(CNc1ccc(F)cn1)P(=O)(O)O [Compound 12, 2-(5-fluoropyridin-2-ylamino)ethylidene-1,1-bisphosphonic Acid, reference compound] | 68 | 260 | 49 | – | – | – | – | –
11 | CC(C)(C)C(=O)OCOP(=O)(OCOC(=O)C(C)(C)C)C(CNc1cccc(Br)n1)P(=O)(OCOC(=O)C(C)(C)C)OCOC(=O)C(C)(C)C [Compound 21, tetrakispivaloyloxymethyl 2-(6-bromopyridin-2-ylamino)ethylidene-1,1-bisphosphonate] | – | – | – | 6.1 | 9 | > 10 | – | –
12 | CC(C)(C)C(=O)OCOP(=O)(OCOC(=O)C(C)(C)C)C(CNc1ccc(-c2ccccc2)cn1)P(=O)(OCOC(=O)C(C)(C)C)OCOC(=O)C(C)(C)C [Compound 19, tetrakispivaloyloxymethyl 2-(5-phenylpyridin-2-ylamino)ethylidene-1,1-bisphosphonate] | – | – | – | 6.7 | 9.5 | > 10 | – | –
13 | Cc1ccc(NCC(P(=O)(OCOC(=O)C(C)(C)C)OCOC(=O)C(C)(C)C)P(=O)(OCOC(=O)C(C)(C)C)OCOC(=O)C(C)(C)C)nc1 [Compound 3, tetrakispivaloyloxymethyl 2-(5-methylpyridin-2-ylamino)ethylidene-1,1-bisphosphonate] | – | – | – | 5.6 | 5.4 | 0.48 | – | –
14 | CC(C)(C)C(=O)OCOP(=O)(OCOC(=O)C(C)(C)C)C(CNc1ncccc1OCc1ccccc1)P(=O)(OCOC(=O)C(C)(C)C)OCOC(=O)C(C)(C)C [Compound 15, tetrakispivaloyloxymethyl 2-(3-benzyloxypyridin-2-ylamino)ethylidene-1,1-bisphosphonate] | – | – | – | 7.1 | 16 | > 10 | – | –
15 | CC(C)(C)C(=O)OCOP(=O)(OCOC(=O)C(C)(C)C)C(Cn1ccc2cccnc21)P(=O)(OCOC(=O)C(C)(C)C)OCOC(=O)C(C)(C)C [Compound 31, tetrakispivaloyloxymethyl 2-(7-azaindol-1-yl)ethylidene-1,1-bisphosphonate] | – | – | – | 2.2 | 1.7 | 1.6 | high activity | high activity
16 | O=P(O)(O)C(CNc1ncccc1Br)P(=O)(O)O [Compound 9, 2-(3-bromopyridin-2-ylamino)ethylidene-1,1-bisphosphonic Acid, reference compound] | 1100 | 970 | > 100 | – | – | – | – | –
17 | Cc1ccnc(NCC(P(=O)(OCOC(=O)C(C)(C)C)OCOC(=O)C(C)(C)C)P(=O)(OCOC(=O)C(C)(C)C)OCOC(=O)C(C)(C)C)c1 [Compound 16, tetrakispivaloyloxymethyl 2-(4-methylpyridin-2-ylamino)ethylidene-1,1-bisphosphonate] | – | – | – | 6.8 | 15 | 5.1 | – | –
18 | CCCCCCCCc1cccnc1NCC(P(=O)(OCOC(=O)C(C)(C)C)OCOC(=O)C(C)(C)C)P(=O)(OCOC(=O)C(C)(C)C)OCOC(=O)C(C)(C)C [Compound 23, tetrakispivaloyloxymethyl 2-(3-octanylpyridin-2-ylamino)ethylidene-1,1-bisphosphonate] | – | – | – | 3.5 | 4.5 | 3.4 | – | –
19 | CC(C)(C)C(=O)OCOP(=O)(OCOC(=O)C(C)(C)C)C(CNc1ccc(Br)cn1)P(=O)(OCOC(=O)C(C)(C)C)OCOC(=O)C(C)(C)C [Compound 4, tetrakispivaloyloxymethyl 2-(5-bromopyridin-2-ylamino)ethylidene-1,1-bisphosphonate] | – | – | – | 3.6 | 7.8 | 0.7 | – | –
